By pIC50 is commonly meant −log10 of the IC50, conventionally taken in molar units. Read a low pIC50 as a large IC50.

pIC50: −log10 of the molar value. Some results are limits rather than exact numbers.

For the assay, the target named is PIK3CA (human) (UniProt P42336). In words: Assessment of PIK3CA Kinase Activity.
PIK3CA (human), sequence (P42336 whole entry, looked up): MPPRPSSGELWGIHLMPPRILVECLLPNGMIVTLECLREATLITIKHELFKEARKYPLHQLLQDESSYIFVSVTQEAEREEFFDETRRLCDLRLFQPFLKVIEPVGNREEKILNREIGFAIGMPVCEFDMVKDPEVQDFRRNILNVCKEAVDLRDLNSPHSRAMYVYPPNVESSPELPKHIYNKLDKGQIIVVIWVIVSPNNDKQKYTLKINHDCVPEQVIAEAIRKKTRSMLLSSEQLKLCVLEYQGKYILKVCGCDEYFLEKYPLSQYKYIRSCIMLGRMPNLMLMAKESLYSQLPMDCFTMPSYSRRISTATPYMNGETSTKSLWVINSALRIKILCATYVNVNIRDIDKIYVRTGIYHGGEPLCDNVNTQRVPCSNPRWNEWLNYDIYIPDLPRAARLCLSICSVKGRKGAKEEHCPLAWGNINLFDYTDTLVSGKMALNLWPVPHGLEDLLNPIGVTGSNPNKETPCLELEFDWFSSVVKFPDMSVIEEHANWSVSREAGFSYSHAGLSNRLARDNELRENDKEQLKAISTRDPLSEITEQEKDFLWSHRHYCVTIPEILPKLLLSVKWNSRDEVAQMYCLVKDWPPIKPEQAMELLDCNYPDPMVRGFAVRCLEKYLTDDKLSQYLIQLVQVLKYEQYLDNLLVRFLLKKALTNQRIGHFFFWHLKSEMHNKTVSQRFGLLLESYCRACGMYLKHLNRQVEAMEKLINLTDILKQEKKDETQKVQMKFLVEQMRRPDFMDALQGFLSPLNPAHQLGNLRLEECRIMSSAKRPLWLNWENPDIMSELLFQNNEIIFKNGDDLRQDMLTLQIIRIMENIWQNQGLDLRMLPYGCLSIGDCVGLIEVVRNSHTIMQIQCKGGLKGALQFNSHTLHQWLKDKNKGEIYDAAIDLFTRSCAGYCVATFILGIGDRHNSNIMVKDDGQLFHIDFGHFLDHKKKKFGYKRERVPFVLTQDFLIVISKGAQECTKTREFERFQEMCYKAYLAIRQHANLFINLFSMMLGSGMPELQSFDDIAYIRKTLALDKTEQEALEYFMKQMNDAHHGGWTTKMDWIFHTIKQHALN
`Cc1cc(-c2cnn(C)c2)cc2c1OCCN(c1nc(N)nc(C)c1C(C)C)C2`: the pIC50 was 6.30 to 7.00.

For the compound `Cc1cc(-c2cnc3sc(N)nc3c2)cc2c1OCCN(c1nc(S(C)(=O)=O)nc(C)c1C(C)C)C2`, the pIC50 was no less than 7.00.

The compound `Cc1cc(-c2cnc3sc(N)nc3c2)cc2c1OCCN(c1nc(C3CC3)nc(C)c1C(C)C)C2` had a negative logarithm of the IC50 (pIC50) of no less than 7.00.

On to `Cc1cc(-c2cnc3sc(N)nc3c2)cc2c1OCCN(c1ncc(C#N)c(N)n1)C2`, for which the pIC50 is no less than 7.00.

For the origin of these results see the Kinase Knowledgebase extract (Sharma et al. 2016).
